{
  "source": "patent US10058582B2",
  "about": "“Therapeutic molecules and deviates for CRC” (ANTARTINA LLC, priority 2015, dated 2018)",
  "key": {"[1]": {"tested_on": "BNL cells", "test": "CTL cytotoxicity assay (LDH release), BNL targets", "assay_type": "cell-based, mouse", "conditions": "splenocytes of treated mice, in vitro", "protocol": "(§1) viable splenocytes from control or treated mice (10×10^6) were stimulated in vitro with mitomycin C-treated CT26 cells (10×10^5 cells/well in 24-well-plates). On day 5, cells were harvested and washed, adjusted to 2×10^6/mL, and added to 96-well-plate (effector cells). To determine specific CTL cytotoxicity activity CT26 and BNL cells were used as target at 2×10^5/mL. After incubation for 4 h at 37° C., plates were centrifuged and cell-free supernatants were obtained. Levels of released LDH were evaluated with the LDH Cytotoxicity Detection Kit (Sigma-Aldrich) following the manufacturer's instructions and expressed as percentage of lysis."}, "[2]": {"tested_on": "CT26 cells", "test": "Cell viability assay (MTS, 490 nm)", "assay_type": "cell-based, mouse", "protocol": "Mouse CT26 tumor cell line, an undifferentiated murine colorectal carcinoma (CRC) cell line established from a N-nitroso-N-methylurethan-induced transplantable tumor in BALB/c (H-2d) mice and BNL hepatoma cell line was kindly provided by Prof. Jesús Prieto, University of Navarra, Spain. CT26 and BNL were cultured in complete DMEM (2 mM glutamine, 100 U/ml penicillin, […] streptomycin) and 10% heat-inactivated fetal bovine serum (FBS) and incubated at 37° C. in a 5% CO2 humidified atmosphere.\nAntartina was dissolved in 0.1% DMSO and sterile water an injected intraperitoneally (i.p.) at the doses indicated or used for in vitro assays at different concentrations (0.1; 1 and 10 µg/ml). Fluorouracil Rontag® (5-Fu) 500 mg was diluted in saline solution at indicated concentrations (0.1; 1 and 10 µg/ml).\nCT26 cells were plated onto 96-well plates at a density of 5×10^3 cells/well and cultured with DMEM or Antartina at different doses (0.1-1-10 […]at different doses (0.1-1-10 DMEM or y of 5×10t indicated concentrations (0.1; 1 and 10 nd 10 ions (0.1; 1 and 10 mental for 4 hour after which the absorbance of each well was read at 490 nm. All assays were performed in quadruplicate, and each assay was repeated twice."}, "[3]": {"tested_on": "CT26 cells", "test": "CTL cytotoxicity assay (LDH release), CT26 targets", "assay_type": "cell-based, mouse", "conditions": "splenocytes of treated cured mice, p<0.001", "protocol": "as §1"}, "[4]": {"tested_on": "CT26 CRC cells", "test": "Long-term protection study (re-challenge)", "assay_type": "in vivo, BALB/c mice", "conditions": "3 weeks after complete tumor regression, 5×10^5 cells left flank", "text": "to evaluate protective immunity, animals that were free of disease at 3 wk after complete regression of primary tumors (7 week after first tumor inoculation) were challenged with 5×10^5 CT26 cells on the left flank."}, "[5]": {"tested_on": "hepatocellular carcinoma", "test": "Hepatocellular carcinoma in mice with advanced fibrosis (preliminary, data not shown)", "assay_type": "in vivo"}, "[6]": {"test": "Toxicity studies", "assay_type": "in vivo, BALB/c mice", "protocol": "BALB/c mice untreated or treated with Antartina (5 mg/kg and 50 mg/kg) were used to assess its toxicology profile. […] Aspartate aminotransferase (AST) and alanine aminotransferase (ALT) levels were measured by standard colorimetric methods. Also, healthy mice or mice receiving Antartina were sacrificed to collect liver, spleen, and kidney samples. Paraffin embedded tissues were stained with H & E for pathological analysis."}, "[7]": {"tested_on": "CT26 CRC tumors", "test": "Subcutaneous CRC model", "assay_type": "in vivo, BALB/c mice", "conditions": "for microscopic examination of tumor sections (H & E): 10 and 15 days after treatment", "protocol": "Subcutaneous CRC model: CT26 cells were injected at a dose of 5×10^5 cells subcutaneously (s.c.) into the right flank of BALB/c mice (day 0). Tumors were allowed to reach approximately 90 mm^3 in size before treatment was started. Animals were distributed in different groups and then treated with Antartina or 0.1% DMSO in sterile water intraperitoneal (i.p.) (control group, n=6); Antartina (5 or 50 mg/kg i.p., day 8, n=9). Tumor growth was assessed by caliper measurement.\ntumor samples from experimental groups were obtained 10 and 15 days after treatment and fixed in 10% phosphate-buffered formalin. Five-micrometer sections from paraffin-embedded tissues were stained with hematoxylin and eosin (H & E) for histologic examination."}, "[8]": {"tested_on": "CT26 cells injected into the liver", "test": "Liver metastatic CRC model", "assay_type": "in vivo, BALB/c mice", "protocol": "BALB/c mice received an intra-hepatic inoculation of 5×10^5 CT26 cells (day 0). The mice were distributed in experimental groups and treated with saline (control group, n=6); Antartina (5 mg/kg i.p., n=8 day 8). At day 18, animals were sacrificed and the volume of metastatic nodules was measured with caliper."}, "[9]": {"tested_on": "tumor-infiltrating CD4+ and CD8+ T cells", "test": "Flow cytometry of tumor-infiltrating T lymphocytes", "assay_type": "in vivo, BALB/c mice", "conditions": "day 18, p<0.05", "protocol": "previously, single cell suspensions were obtained by mechanical disruption of tumor samples treated with 0.5 mg/ml Collagenase I at 37° C. for 45 min and washed with PBS 1% bovine serum albumin. Then, tumor cells were stained with PECy5-anti-CD4 (BD Biosciences) and AlexaFluor488-anti-CD8 (BD Biosciences) and their respective isotypes and subjected to flow cytometry (FACSAria, BD). Data were analyzed using Cyflogic v. 1.2.1 software."}, "[10]": {"tested_on": "CT26 cells", "test": "Cell cycle analysis (propidium iodide, flow cytometry)", "assay_type": "cell-based, mouse", "conditions": "48 h and 72 h, Antartina 10 µg/ml", "protocol": "1×10^6 CT26 cells cultured with DMEM or Antartina were collected washed in PBS and fixed in a mixture of ice-cold 70% (v/v) ethanol, FBS and distill water. Fixed cells were centrifuged and stained with propidium iodide (PI) solution (50 μg/ml PI, 180 U/ml RNAse). DNA content was determined using a FACS Accuri 6 laser flow cytometer (Becton Dickinson)."}},
  "data": [
    {"smiles": "COc1cc(-c2cc(=O)c3c(O)cc(O[C@@H]4O[C@H](CO)[C@@H](O)[C@H](O)[C@H]4O)cc3o2)cc(OC)c1O", "note": "[Antartina, Tricin 7-O-β-D-glucopyranoside]", "values": [
      {"measurement": "CTL activity against BNL cells", "setting": "[1]", "result": "no CTL activity"},
      {"measurement": "CT26 cell survival", "setting": "[2]; 48 h, highest concentration, p<0.05", "result": "inhibits CT26 cell survival"},
      {"measurement": "cell viability reduced to", "setting": "[2]; 72 h, 10 µg/ml, p<0.001", "result": "~50", "unit": "%"},
      {"measurement": "cell viability reduced", "setting": "[2]; 72 h, 1 µg/ml, p<0.05", "result": "more than 20%"},
      {"measurement": "specific CTL activity against CT26 cells", "setting": "[3]", "result": "potent activation of specific cytotoxic T lymphocytes"},
      {"measurement": "specific CTL activity against CT26 cells", "setting": "[3]; listed as Antarina", "result": "potent CTL activity against CT26 cells"},
      {"measurement": "re-challenge of cured animals with CT26 cells", "setting": "[4]", "result": "rejected in all animals"},
      {"measurement": "antitumoral activity in vivo against hepatocellular carcinoma", "setting": "[5]", "result": "antitumoral activity"},
      {"measurement": "H & E stained tissues (liver, spleen, kidney)", "setting": "[6]; 5 mg/kg and 50 mg/kg", "result": "no signs of toxicity"},
      {"measurement": "body weight gain in both groups", "setting": "[6]; 5 and 50 mg/kg", "result": "similar"},
      {"measurement": "general health of animals", "setting": "[6]; 5 and 50 mg/kg", "result": "remained healthy"},
      {"measurement": "tolerability, clinical and biochemical toxicity (AST, ALT)", "setting": "[6]; 5 and 50 mg/kg, observed more than 30 days", "result": "well tolerated with no evident signs of clinical and biochemical toxicity"},
      {"measurement": "tumor growth vs saline control", "setting": "[7]; 5 mg/kg i.p., from day 8 three times a week, over 30 days", "result": "significant inhibition of tumor growth"},
      {"measurement": "survival rate vs controls", "setting": "[7]; 5 mg/kg i.p., s.c. CT26 model", "result": "significantly increased"},
      {"measurement": "complete tumor regression, percent of mice", "setting": "[7]; 50 mg/kg i.p.", "result": "more than 30%"},
      {"measurement": "tumor volume", "setting": "[7]; 50 mg/kg i.p. from day 8", "result": "potent tumor volume reduction"},
      {"measurement": "complete tumor regression, mice of group", "setting": "[7]; 50 mg/kg i.p., n=9", "result": "3/9"},
      {"measurement": "animal survival vs saline control", "setting": "[7]; 50 mg/kg i.p., p<0.01", "result": "significantly increased"},
      {"measurement": "microscopic examination of tumor sections (H & E)", "setting": "[7]; 50 mg/kg i.p.", "result": "extensive areas of necrosis and marked mononuclear cells infiltration"},
      {"measurement": "microscopic examination of tumor sections (H & E)", "setting": "[7]; 50 mg/kg i.p., listed as Antarina", "result": "intense mononuclear infiltrate and extensive areas of necrosis"},
      {"measurement": "treated animals showing a reduction in metastases growth", "setting": "[8]; 5 mg/kg i.p.", "result": "more than 60%"},
      {"measurement": "mean of tumor volume", "setting": "[8]; 5 mg/kg i.p. from day 8, day 18 after inoculation, control 1508±204", "result": "955±275", "unit": "mm^3"},
      {"measurement": "survival vs controls", "setting": "[8]; 5 mg/kg i.p., liver metastatic model, p<0.01", "result": "superior"},
      {"measurement": "proportion of tumor-infiltrating CD4+ and CD8+ T cells vs control", "setting": "[9]", "result": "increased proportion"},
      {"measurement": "cell cycle pattern", "setting": "[10]", "result": "arrested at G2/M phase"},
      {"measurement": "cell cycle pattern", "setting": "[10]; listed as Antarina", "result": "halted CT26 cells at the transition from G2 to M-phase"}
    ]}
  ]
}
